Values quoted from earlier work, collected in patent US20090005321A1, “Phenylazetidinone Derivatives” (Microbia, Inc., priority 2005, published 2009).

Columns and labels:
[1] = in vivo
[2] = in humans

absorption of taurocholic acid [1]: does not inhibit
fat-soluble vitamin absorption [2]: does not appear to affect
Compound: O=C1[C@H](CC[C@H](O)c2ccc(F)cc2)[C@@H](c2ccc(O)cc2)N1c1ccc(F)cc1 [ezetimibe, (3R,4S)-1-(4-fluorophenyl)-3-[(3S)-3-(4-fluorophenyl)-3-hydroxypropyl]-4-(4-hydroxyphenyl)azetidin-2-one]
